From US11266712B2, “Antimicrobial peptides and methods of using the same” (Riptide Bioscience, Inc., priority 2018, dated 2022)

Columns and labels:
[1] = tested on: S. aureus 29213; assay: Resistance development, 30 serial passages at sub-MIC; type: cell-based; details: after 30 days / 30 serial passages
Procedure: (§1) Sub-inhibitory concentrations of RP557, gentamicin and clindamycin were incubated with P. aeruginosa 27853 and S. aureus 29213 for 24 hours. Bacteria showing growth in the highest concentration were re-passaged in fresh dilutions containing sub-minimum inhibitory concentration (MIC) levels of each component for 30 consecutive passages.
as §1, with “FIG. 4A to 4B. […] Sub-inhibitory” for “Sub-inhibitory”, “passages; means are shown.” for “passages.”

[2] = tested on: C. albicans (ATCC 44858); assay: Rodent model of vulvovaginal candidiasis; type: in vivo; details: rat, oral fluconazole
Procedure: FIG. 8A to 8B indicates topical treatment of exemplary peptide RP557 reduces rodent vaginal candidiasis. Effects of RP557, miconazole and oral fluconazole in a C. albicans vaginal infection rodent model. On Day 0, rats were inoculated intravaginally with C. albicans. RP557 and miconazole were administered twice daily (FIG. 8A). A separate group received oral fluconazole (FIG. 8B). Further details are provided in the experimental section.
RP557 was effective in eradicating C. albicans in a rodent model of vulvovaginal candidiasis (FIG. 8A-8B).
FIG. 8A to 8B. RP557 topical treatment reduces rodent vaginal candidiasis. Effects of RP557, miconazole and oral fluconazole in the C. albicans (ATCC 44858) vaginal infection rodent model. On Day 0, rats were inoculated intravaginally (IVG) with C. albicans at 1.46×10^7 CFU/rat. RP557 and miconazole at 20 mg/mL were administered IVG at 0.1 mL/rat twice daily at 8 hr intervals starting from 48 hr after infection for 3 days. CPUs were evaluated on Day 5 with limit of detection (LOD) 0.7 CFU/rat. Significant difference, compared to vehicle, determined by one-way ANOVA followed by Dunnett's test (*p<0.05, ****p<0.0001). A separate group receiving oral fluconazole; *p<0.05 versus 0.1 and 10 mg/kg fluconazole.

[3] = tested on: P. aeruginosa 27853; assay: Resistance development, 30 serial passages at sub-MIC; type: cell-based; details: after 30 days / 30 serial passages
Procedure: as §1
as §1, with “FIG. 4A to 4B. […] Sub-inhibitory” for “Sub-inhibitory”, “passages; means are shown.” for “passages.”

## CCC[C@@H]1C[C@@H](C(=O)N[C@@H]([C@H]2O[C@H](SC)[C@H](O)[C@@H](O)[C@H]2O)[C@H](C)Cl)N(C)C1 [clindamycin]
[1]
  growth at multiple of the MIC after 30 days: 256 times the minimum inhibitory concentration (MIC)

## OC(Cn1cncn1)(Cn1cncn1)c1ccc(F)cc1F [fluconazole]
[2]
  activity on fungal counts: minimal activity

## gentamicin
[3]
  growth at multiple of the MIC after 30 days: 4096 times the minimum inhibitory concentration (MIC)
